In assay [1] the test system is MCF-7 cells. The conditions noted are these: reference drug; cited from earlier work.
Assay [2] relates to MCF-7 cells. Put plainly: MTT cytotoxicity assay on MCF-7 cells. The following applies: SI = IC50 on MCF-10 cells/IC50 on MCF-7 cells. It counts as cell-based, human. The procedure:
In this study, we wondered whether semi-synthetic compounds have potential antitumoral properties against BC. Therefore, we were interested in investigating the effect of the compounds on the MCF-7 cell line. Firstly, we studied the effect on cell viability using a colorimetric MTT assay, which was performed to quantify the cytotoxic activity; each compound was evaluated at different concentrations (500−100−20−4−0.8−0.16−0.032−0 µM). Daunorubicin was also used as a positive control for comparison with a reference drug. […] Although the MCF-10 cell line provides a useful selectivity model, it may not fully represent the varying sensitivities of different normal cell types within a multicellular organism. The SI value indicates the ratio of toxicity in mammalian host cells to that in a tumoral cell. The data obtained in response to different concentrations of compounds were used to calculate the IC50 and corresponding SI values, as shown in Table 1.
The American Type Culture Collection (Rockville, MD, USA) supplied the following experimental cell lines: MCF-7, a human breast cancer cell line, and MCF-10A, a human epithelial breast cell line (ATCC N° CRL-10317). Both cell lines were grown in DMEM-F12 medium containing 10% FCS, 100 U/mL penicillin, 100 μg/mL streptomycin, and 1 mM glutamine. The cells were seeded at a concentration of 100 μL per well at a plating density of 3 × 10^3 cells/well and incubated for 24 h at 37 °C under 5% humidified CO2 to enable attachment. The cells were then treated with varying concentrations of synthesized compounds for […] under the same conditions. The compound stock solution was prepared in DMSO, and the final concentration of DMSO was kept at 0.1%. Control cultures were treated with only 1% ethanol.
Cells from the MCF-7 and MCF-10 lines were seeded into 96-well plates at a density of 1 × 10^4 per well. After 24 h, the compounds were added at increasing concentrations (500–100–20-4–0.8–0.16–0.032–0 µM), and the cells were incubated at 37 °C in a humidified 5% CO2/95% air mixture for 48 h. Following incubation, the cells were washed twice with PBS, and 100 μL of 0.5 mg/mL MTT solution was added to each well. After 2 h of incubation, the MTT solution was removed, and the formazan crystals were dissolved in 50 μL of DMSO per well. Absorbance was then measured at 570 nm using a microplate ELISA reader. IC50 values, determined from three independent experiments conducted in triplicate, were calculated using SigmaPlot® software (version 11.0). The selectivity index (SI) of each compound in each cell line was determined by calculating the ratio of the IC50 values for MCF-10 and cancer cell lines. Compounds were considered selective if SI values were equal to or greater than 3 [46].
In general terms: Formazan colour is commonly taken as a measure of viable cells.

A further assay has as its system MCF-10 cells. On the set-up: method as in PMID 25412045. The following applies: reference drug; cited from earlier work.
A further assay has as its system human topoisomerase II. The assay can be described thus: TOP2 DNA relaxation / plasmid linearization assay. It counts as biochemical. The conditions noted are these: 20 μM. The procedure: The ability to relax DNA conformations is a central function of topoisomerase enzymes. Several studies have associated some proapoptotic compounds with the ability to inhibit topoisomerase enzymes. The ability of the selected compounds to inhibit TOP1 or TOP2 activity was determined. In this experiment, daunorubicin was used as a positive control for TOP1/2 inhibition, as previously reported. […] It is important to note the potential for cardiotoxicity associated with some TOP2 inhibitors, which highlights the relevance of assessing compound 14c’s interaction with TOP2B. […] Future studies should include assays to evaluate the specific activity of 14c against both TOP2A and TOP2B to provide a more comprehensive safety profile, as isoform-selective TOP2 inhibitors may offer a therapeutic advantage by reducing adverse effects.
Topoisomerase II-mediated DNA cleavage was assessed using a plasmid linearization assay adapted from previously described methods. Supercoiled plasmid DNA (200 ng final concentration) was incubated with purified human topoisomerase II (10 U) in the presence or absence of test agents or a positive control. Reactions were carried out in a total volume of 20 μL, composed of 2 μL of 10× topoisomerase II reaction buffer, an appropriate volume of compound or control, and nuclease-free water. ATP (final concentration adjusted from a 20 mM stock) was freshly added to the reaction buffer immediately prior to use. Reactions were initiated by the addition of topoisomerase II and incubated at 37 °C for 30 min. To terminate the reactions, 2 μL of 10% SDS was added directly to the tubes while still in the 37 °C water bath, followed by the addition of 1.5 μL of 250 mM tetrasodium EDTA (pH 8.0) and 2 μL of proteinase K solution (0.8 mg/mL). […]
Figure 7 The effect of sesquiterpene aryl esters on TOP1- and TOP2-induced DNA relaxation was assessed. (A) The TOP1 inhibition assay evaluated the compounds (10c, 11c, 12c, 13c, and 14c) at a concentration of 20 μM in a DNA relaxation assay. […]

The IC50 is the midpoint of a concentration-inhibition curve. On to `COc1cccc2c1C(=O)c1c(O)c3c(c(O)c1C2=O)C[C@@](O)(C(C)=O)C[C@@H]3O[C@H]1C[C@H](N)[C@H](O)[C@H](C)O1` [Daunorubicin, reference compound], for which the IC50 in the assay on MCF-7 cells [1] is 330 ± 20 nM; in the assay on MCF-10 cells it was 9.32 ± 1.01 µM. Also, in the assay on MCF-7 cells [2], the “Selectivity Index (SI)” value stood at 28. In the assay on human topoisomerase II, the “inhibition of TOP2-induced DNA relaxation” value is recorded as “modified the TOP2-induced DNA relaxation pattern”.

Values taken from paper PMC12111648, “New Dimethoxyaryl-Sesquiterpene Derivatives with Cytotoxic Activity Against MCF-7 Breast Cancer Cells: From Synthesis to Topoisomerase I/II Inhibition and Cell Death Mechanism Studies” (International Journal of Molecular Sciences, 2025).
